Experimental data taken from publication PMC4474394 (OncoTargets and therapy, 2015).

Experiment: In vivo biodistribution in NCI-H157-bearing BALB/c nude mice
Conditions: 99mTc-labeled peptide, judged from weak accumulation in brain tissue

- Blood–brain barrier penetration: poor
Sequence: TMPFLFCNVNDVCNFASRNDYSKKK [T7]
